Laboratory results published in paper PMC5431342, “Discovery of an enzyme and substrate selective inhibitor of ADAM10 using an exosite-binding glycosylated substrate” (Scientific Reports, 2016).

What was measured:
[1] = tested on: IL-8-induced migration of primary human neutrophils; experiment: Neutrophil migration assay; type: cell-based
Procedure: (§1) For PBMC or primary human neutrophil chemotaxis assays, transwells with 8 or 5 µm pores were filled with 100 µL of cell suspension (1 × 10^6 cells in 100 µL DMEM + 0.2% BSA). Lower wells were filled with stimulus solution (3 nM CCL2 or 10 µg/mL CXCL8 (IL8) in assay buffer (RPMI + 0.2% BSA). After incubation of PBMCs for 2 h or neutrophils for 45 min, migrated cells were quantified in the lower well. For inhibitor studies, cells were pre-incubated in migration medium for 30 min and subsequently subjected to the migration experiment. Migrated neutrophils or PBMCs were quantified by measurement of endogenous glucuronidase activity as described.

[2] = biological target: T1, ADAM10 (Homo sapiens, UniProt O14672); experiment: ADAM10 glycosylated substrate uHTS/HTS assay; type: biochemical
T1 construct: purchased R&D Systems 936-AD
T1 sequence (O14672 214-748): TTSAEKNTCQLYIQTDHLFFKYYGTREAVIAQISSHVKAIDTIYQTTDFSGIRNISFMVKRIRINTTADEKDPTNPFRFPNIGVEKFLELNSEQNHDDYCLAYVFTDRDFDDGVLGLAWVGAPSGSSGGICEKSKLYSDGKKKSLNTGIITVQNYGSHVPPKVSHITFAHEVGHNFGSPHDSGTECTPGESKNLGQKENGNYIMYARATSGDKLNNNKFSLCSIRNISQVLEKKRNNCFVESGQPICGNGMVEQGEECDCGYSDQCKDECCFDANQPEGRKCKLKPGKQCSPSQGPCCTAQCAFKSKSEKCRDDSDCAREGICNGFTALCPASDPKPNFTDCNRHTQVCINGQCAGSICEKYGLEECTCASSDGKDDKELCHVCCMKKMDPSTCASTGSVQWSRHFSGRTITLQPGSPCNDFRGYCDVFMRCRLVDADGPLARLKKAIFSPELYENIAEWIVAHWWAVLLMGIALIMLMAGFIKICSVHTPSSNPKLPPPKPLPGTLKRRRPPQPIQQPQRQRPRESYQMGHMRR
Procedure: To enable uHTS both ADAM10 and ADAM17 glycosylated substrate[13] (Fig. 1A) assays were miniaturized to 1536 well plate format. The workflow of the assays in 384 well plate format was recaptured in 1536 well plate format and assay volume was scaled down to 5 µL.
Both assays followed the same general protocol. […] Reactions were incubated at RT for 2 h, after which the fluorescence was measured using Perkin Elmer Viewlux multimode microplate imager (λexcitation = 360 nm, λemission = 460 nm). Final concentration of test compounds in assays was 7.0 µM.
The miniaturized 1536-well plate format ADAM10 and ADAM17 assays were used to screen a collection of ≈370,000 compounds (MLSMR library, provided by the NIH) on the automated Kalypsys/GNF platform at the Scripps Research Institute Molecular Screening Center (SRIMSC, Jupiter, FL. More details at http://hts.florida.scripps.edu/). […] Both uHTS campaigns were run separately but in a similar manner. Briefly, the first step was the primary screen of all MLSMR’s test compounds as singlicate against the ADAM10 or ADAM17 target at a final concentration of 7.0 μM. Next, compounds selected as primary hits were cherry-picked and retested in triplicate against the primary screen target and its anti-target (ADAM17 for the ADAM10 screening effort, and vice-versa) at the same final concentration of 7.0 μM. […] All data generated during this effort were uploaded to the SRIMSC’s institutional screening database (Assay Explorer, Symyx). Sample to background (S/B) ratios, as well as Z and Z′ values were calculated on a per-plate basis as described before. Curve fitting and resulting IC50 determinations were performed as previously reported.

[3] = tested on: MDA-MB-231 cells; experiment: Wound closure assay, MDA-MB-231; type: cell-based; settings: MDA-MB-231, 10 µM
Procedure: For live-cell analysis of scratch-induced wound closure, 2.5 × 10^4 MDA-MB-231 and A549 cells per well were seeded in collagen G (40 µg/mL) (Biochrom AG, Germany) coated 96-well plates near confluence and allowed to grow overnight in standard medium (DMEM supplemented with 10% FBS and 1% P/S). At confluence, cells were pretreated 2 h with mitomycin (10 µg/mL) (Medac, Germany) to block cell proliferation and washed with standard media. Afterwards, cells were incubated in the presence of inhibitor at the indicated concentrations or DMSO (0.1% vehicle). Subsequently, a defined scratch (wound width between 642–767 µm) was performed in each well using the certified Essen Bioscience automated 96-wound maker^TM (Essen Biosciences, Hertfordshire, UK) for 96 well-plates. The medium was removed and 100 µL standard medium were added to the wells containing either inhibitor or DMSO. The closure of the wounded area was monitored using the IncuCyte ZOOM system by taking images of each well every 2 h over a period of 24 h. The reduction of wound width was determined over time using the IncuCyte ZOOM microscope software 2014A. Data were expressed as percentage of wound closure after 8 h.

[4] = tested on: CCL2-induced migration of peripheral blood mononuclear cells (PBMC); experiment: PBMC migration assay; type: cell-based; settings: statistical significance not reached
Procedure: as §1

[5] = tested on: shedding of HER2 from the surface of BT474 cells; experiment: HER2 shedding inhibition (AlphaLISA soluble HER2); type: cell-based; settings: Homo sapiens, BT-474, 48 h
Procedure: To determine the effect of CID 3117694 on the release of HER2, an AlphaLISA soluble HER2 assay kit was utilized (Perkin Elmer # AL234 C/F). Briefly, 20,000 BT474 (HER2 positive) breast cancer cells were seeded in 200 µL of complete Hybricare media in 96 well plates. After 4 h, media was aspirated and CID 3117694 (3.125–100 µM) and controls (50 µM marimastat and GI 254023X)[11] were added in serum-free media. Cells were incubated for 48 h at 37 °C with 5% CO2 and under a humidified atmosphere. After incubation, 5 µL of supernatant was transferred into white opaque 384 well plate for HER2 AlphaLISA assay.

## COc1cccc(C(=O)NNC(=O)C(=O)Nc2ccc(C)c(Cl)c2)c1 [CID 3117694]
[1]
  inhibition of neutrophil migration: inhibition of migration to random migration levels
[2]
  difference in potency, 0.5 hour pre-incubation versus no incubation: approximately 40 fold
[2]; 1 h pre-incubation
  IC50: 0.7 ± 0.5 µM
[2]; 4 h pre-incubation
  IC50: 0.4 ± 0.3 µM
[2]; IC50 5.3 nM versus 1.1 µM
  difference in in vitro potency for ADAM10, GI 254023X versus CID 3117694: ~200 fold
[2]; no pre-incubation with ADAM10
  IC50: 40 ± 5 µM
  inhibition profile: partial inhibition profile
[2]; original uHTS dose response, 10-point 1:3 dilutions starting at 70 µM
  IC50: 6.5 µM
[2]; reordered powder, HTS assay, glycosylated substrate, 0.5 h pre-incubation
  IC50: 1.1 µM
[3]
  effect on wound healing: significantly decreased wound healing
[4]
  inhibition of PBMC migration: approximately 50%
[5]
  IC50: 30 ± 2.5 µM
